Assay results reported in ChEMBL document CHEMBL5465560, “Selectivity Literature for EUbOPEN Chemogenomic Library” (2024).

Tests used:
[1] = molecular target: Casein kinase I isoform gamma-2 (Homo sapiens) (UniProt P78368); details: at 10 µM
[2] = molecular target: Dual specificity protein kinase CLK1 (Homo sapiens, UniProt P49759); experiment: Selectivity interaction (Ambit KINOMEscan and KiNATiv profiling in Jurkat cells) EUB0000090b CLK1; format: cell-based; details: at 1 µM
[3] = molecular target: Calcium/calmodulin-dependent protein kinase type II subunit beta (Homo sapiens) (UniProt Q13554); experiment: Selectivity interaction (ActivX KiNativ screen (kinase selectivity in THP-1 cell lysates)) EUB0000639a CAMK2B; format: subcellular; details: lysate, at 5 µM
[4] = molecular target: T1, Mitogen-activated protein kinase kinase kinase 19 (Homo sapiens) (UniProt Q56UN5); experiment: Selectivity interaction (KinomeScan (DiscoverX)) EUB0000695a MAP3K19; details: at 100 nM
T1 sequence (whole entry): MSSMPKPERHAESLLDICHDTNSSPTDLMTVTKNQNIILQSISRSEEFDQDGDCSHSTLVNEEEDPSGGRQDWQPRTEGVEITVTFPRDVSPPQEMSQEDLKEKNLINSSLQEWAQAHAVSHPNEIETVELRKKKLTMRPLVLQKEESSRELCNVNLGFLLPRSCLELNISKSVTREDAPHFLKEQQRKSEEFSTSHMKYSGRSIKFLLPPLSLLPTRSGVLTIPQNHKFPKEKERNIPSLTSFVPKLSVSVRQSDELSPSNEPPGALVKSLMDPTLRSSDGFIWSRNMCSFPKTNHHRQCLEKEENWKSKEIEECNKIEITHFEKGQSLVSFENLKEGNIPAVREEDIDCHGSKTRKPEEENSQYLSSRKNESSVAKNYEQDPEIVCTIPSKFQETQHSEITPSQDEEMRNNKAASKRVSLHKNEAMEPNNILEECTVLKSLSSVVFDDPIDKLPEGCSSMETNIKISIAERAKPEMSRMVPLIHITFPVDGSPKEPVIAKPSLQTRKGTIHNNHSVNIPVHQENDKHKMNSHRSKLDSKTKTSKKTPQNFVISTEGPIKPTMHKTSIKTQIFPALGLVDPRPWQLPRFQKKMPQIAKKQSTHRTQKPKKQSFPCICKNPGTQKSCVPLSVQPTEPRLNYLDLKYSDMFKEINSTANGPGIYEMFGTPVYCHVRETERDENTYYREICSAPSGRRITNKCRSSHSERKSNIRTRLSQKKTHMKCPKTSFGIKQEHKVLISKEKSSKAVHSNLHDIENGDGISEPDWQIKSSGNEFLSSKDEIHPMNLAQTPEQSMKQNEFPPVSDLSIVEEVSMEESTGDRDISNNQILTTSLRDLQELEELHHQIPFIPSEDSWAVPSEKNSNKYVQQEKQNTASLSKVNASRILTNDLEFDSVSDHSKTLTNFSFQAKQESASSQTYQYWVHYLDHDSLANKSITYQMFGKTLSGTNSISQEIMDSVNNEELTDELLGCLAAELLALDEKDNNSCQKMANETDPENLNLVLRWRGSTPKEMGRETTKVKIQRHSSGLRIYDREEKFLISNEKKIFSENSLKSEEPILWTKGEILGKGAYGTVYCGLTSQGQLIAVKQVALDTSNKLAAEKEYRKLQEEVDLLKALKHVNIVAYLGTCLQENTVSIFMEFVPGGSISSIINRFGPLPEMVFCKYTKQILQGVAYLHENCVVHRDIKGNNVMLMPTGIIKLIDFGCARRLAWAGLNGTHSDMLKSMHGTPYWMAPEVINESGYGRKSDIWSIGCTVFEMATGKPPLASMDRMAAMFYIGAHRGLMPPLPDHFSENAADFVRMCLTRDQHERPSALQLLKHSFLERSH

[5] = molecular target: Macrophage-stimulating protein receptor (Homo sapiens, UniProt Q04912); experiment: Selectivity interaction (KinomeScan (DiscoverX)) EUB0001079a MST1R; details: at 1 µM
[6] = molecular target: T2, Gamma-aminobutyric acid receptor subunit alpha-1 (Homo sapiens) (UniProt P14867); experiment: Selectivity interaction (GPCR panel (PDSP screen)) EUB0001079a GABRA1; details: at 10 µM
T2 sequence (whole entry): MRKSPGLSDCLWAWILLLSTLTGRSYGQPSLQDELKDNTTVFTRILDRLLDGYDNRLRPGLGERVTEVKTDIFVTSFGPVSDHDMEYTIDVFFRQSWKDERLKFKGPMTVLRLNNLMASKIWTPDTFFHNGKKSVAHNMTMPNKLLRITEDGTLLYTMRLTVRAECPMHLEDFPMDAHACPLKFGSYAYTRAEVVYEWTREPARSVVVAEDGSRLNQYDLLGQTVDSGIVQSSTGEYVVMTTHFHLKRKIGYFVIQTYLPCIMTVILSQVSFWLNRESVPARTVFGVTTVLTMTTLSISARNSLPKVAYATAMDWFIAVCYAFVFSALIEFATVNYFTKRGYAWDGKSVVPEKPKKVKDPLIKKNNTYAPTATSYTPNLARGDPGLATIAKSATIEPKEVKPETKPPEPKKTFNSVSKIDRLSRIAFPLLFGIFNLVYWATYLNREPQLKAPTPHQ

[7] = molecular target: Ephrin type-A receptor 4 (Homo sapiens, UniProt P54764); experiment: Selectivity interaction (KinomeScan (DiscoverX)) EUB0000045b EPHA4
[8] = molecular target: Receptor-type tyrosine-protein kinase FLT3 (Homo sapiens) (UniProt P36888); experiment: Selectivity interaction (SelectScreen Kinase Profiling (Thermo Fisher Scientific)) EUB0001558a FLT3; details: at 1 µM
Receptor-type tyrosine-protein kinase FLT3 (Homo sapiens), sequence (P36888 whole entry): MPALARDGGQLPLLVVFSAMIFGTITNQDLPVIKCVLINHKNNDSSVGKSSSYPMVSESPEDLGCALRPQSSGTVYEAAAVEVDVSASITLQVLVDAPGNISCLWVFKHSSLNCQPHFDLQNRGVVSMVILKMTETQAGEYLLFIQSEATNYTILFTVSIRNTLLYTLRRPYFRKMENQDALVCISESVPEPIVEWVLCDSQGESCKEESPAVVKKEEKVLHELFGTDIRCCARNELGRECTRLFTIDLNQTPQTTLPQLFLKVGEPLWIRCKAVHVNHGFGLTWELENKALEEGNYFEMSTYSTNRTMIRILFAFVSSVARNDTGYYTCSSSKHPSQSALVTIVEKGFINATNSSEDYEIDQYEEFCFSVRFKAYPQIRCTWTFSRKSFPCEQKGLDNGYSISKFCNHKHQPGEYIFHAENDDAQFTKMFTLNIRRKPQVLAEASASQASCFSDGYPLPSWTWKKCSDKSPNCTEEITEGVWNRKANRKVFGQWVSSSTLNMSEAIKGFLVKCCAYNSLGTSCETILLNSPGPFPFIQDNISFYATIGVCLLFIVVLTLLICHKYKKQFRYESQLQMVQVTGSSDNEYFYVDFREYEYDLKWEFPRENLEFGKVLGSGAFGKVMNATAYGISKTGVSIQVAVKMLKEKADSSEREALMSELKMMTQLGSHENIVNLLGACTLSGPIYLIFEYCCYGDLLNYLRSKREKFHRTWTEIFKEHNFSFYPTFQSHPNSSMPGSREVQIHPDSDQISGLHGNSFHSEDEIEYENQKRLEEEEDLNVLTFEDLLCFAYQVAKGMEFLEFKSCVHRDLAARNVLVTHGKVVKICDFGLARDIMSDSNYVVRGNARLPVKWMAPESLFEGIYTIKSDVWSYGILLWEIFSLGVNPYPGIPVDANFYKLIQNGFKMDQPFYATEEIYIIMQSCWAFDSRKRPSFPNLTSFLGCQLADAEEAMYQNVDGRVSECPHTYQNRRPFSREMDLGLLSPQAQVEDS

Ephrin type-A receptor 4, sequence (P54764 whole entry): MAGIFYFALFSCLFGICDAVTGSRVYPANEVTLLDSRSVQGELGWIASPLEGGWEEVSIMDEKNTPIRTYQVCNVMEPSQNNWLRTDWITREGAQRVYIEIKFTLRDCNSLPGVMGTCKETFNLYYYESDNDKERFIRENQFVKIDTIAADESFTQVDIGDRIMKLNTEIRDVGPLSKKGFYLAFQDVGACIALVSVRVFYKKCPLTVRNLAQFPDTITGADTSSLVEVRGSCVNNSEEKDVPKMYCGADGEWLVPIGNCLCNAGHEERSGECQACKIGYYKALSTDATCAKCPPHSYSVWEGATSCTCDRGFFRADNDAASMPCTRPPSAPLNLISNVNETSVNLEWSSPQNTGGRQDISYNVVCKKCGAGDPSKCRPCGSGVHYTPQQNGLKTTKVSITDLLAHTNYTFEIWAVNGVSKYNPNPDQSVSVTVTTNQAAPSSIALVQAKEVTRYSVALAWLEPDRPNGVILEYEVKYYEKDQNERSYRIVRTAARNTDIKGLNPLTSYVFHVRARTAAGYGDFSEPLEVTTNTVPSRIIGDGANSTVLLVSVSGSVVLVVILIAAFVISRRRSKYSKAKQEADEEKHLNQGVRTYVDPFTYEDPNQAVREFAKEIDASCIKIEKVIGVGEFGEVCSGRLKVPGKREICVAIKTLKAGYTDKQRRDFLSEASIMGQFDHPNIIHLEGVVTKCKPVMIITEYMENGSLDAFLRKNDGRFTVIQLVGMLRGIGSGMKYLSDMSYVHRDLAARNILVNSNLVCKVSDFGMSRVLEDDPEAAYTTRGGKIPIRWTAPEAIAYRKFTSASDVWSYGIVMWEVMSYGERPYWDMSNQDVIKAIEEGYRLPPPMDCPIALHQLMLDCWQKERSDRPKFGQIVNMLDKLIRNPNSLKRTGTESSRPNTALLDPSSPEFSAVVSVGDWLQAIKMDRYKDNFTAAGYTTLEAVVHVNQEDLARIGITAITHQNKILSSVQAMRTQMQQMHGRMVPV
Macrophage-stimulating protein receptor, sequence (Q04912 25-304 limits assumed): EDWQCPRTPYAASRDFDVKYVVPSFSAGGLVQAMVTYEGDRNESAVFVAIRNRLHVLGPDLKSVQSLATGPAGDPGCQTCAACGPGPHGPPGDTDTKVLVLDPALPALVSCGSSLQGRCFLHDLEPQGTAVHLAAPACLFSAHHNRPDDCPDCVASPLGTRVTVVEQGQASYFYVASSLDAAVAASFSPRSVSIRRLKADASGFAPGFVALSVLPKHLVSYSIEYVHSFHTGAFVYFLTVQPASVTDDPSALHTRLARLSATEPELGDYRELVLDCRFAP
Macrophage-stimulating protein receptor, sequence (Q04912 310-1400 limits assumed): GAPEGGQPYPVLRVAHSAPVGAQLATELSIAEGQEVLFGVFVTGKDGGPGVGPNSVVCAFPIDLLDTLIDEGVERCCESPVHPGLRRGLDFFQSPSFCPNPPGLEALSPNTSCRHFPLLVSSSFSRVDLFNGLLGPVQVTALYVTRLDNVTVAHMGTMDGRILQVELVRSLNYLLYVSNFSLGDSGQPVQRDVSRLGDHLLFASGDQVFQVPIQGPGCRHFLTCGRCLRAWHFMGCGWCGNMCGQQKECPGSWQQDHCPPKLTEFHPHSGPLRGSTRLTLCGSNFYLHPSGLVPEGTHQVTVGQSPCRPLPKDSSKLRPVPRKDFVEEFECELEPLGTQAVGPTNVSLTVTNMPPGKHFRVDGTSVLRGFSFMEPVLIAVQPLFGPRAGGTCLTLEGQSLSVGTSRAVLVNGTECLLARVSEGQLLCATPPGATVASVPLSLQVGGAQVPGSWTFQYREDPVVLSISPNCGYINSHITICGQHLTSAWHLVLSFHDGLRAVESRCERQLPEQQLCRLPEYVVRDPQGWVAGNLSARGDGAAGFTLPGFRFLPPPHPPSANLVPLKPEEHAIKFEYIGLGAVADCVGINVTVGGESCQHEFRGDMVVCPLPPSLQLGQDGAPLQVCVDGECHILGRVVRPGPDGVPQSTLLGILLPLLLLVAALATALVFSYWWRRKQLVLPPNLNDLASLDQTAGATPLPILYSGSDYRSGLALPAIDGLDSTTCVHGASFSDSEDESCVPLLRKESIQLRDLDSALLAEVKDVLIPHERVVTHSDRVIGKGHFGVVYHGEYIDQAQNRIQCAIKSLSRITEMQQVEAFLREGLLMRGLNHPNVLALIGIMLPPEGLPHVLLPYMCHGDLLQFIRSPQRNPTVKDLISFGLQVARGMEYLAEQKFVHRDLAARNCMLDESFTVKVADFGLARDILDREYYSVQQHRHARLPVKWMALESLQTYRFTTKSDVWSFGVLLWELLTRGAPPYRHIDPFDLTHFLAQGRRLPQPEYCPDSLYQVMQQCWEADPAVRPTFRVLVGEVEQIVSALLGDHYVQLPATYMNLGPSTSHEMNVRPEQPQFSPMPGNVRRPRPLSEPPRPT
Dual specificity protein kinase CLK1, sequence (P49759 whole entry, looked up): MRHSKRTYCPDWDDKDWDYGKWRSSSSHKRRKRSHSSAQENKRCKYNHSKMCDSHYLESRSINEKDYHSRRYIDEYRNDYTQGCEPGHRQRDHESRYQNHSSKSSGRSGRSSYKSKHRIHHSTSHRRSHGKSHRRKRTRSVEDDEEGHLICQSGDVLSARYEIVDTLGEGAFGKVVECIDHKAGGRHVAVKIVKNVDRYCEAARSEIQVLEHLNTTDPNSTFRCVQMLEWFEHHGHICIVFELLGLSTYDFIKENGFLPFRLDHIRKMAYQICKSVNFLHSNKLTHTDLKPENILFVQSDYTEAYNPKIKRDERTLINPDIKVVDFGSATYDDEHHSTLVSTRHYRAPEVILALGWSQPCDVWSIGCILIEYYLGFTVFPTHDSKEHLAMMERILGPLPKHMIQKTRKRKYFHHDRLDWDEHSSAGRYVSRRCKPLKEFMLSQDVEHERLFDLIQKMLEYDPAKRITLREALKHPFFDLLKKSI
Casein kinase I isoform gamma-2 (Homo sapiens), sequence (P78368 whole entry, looked up, canonical isoform): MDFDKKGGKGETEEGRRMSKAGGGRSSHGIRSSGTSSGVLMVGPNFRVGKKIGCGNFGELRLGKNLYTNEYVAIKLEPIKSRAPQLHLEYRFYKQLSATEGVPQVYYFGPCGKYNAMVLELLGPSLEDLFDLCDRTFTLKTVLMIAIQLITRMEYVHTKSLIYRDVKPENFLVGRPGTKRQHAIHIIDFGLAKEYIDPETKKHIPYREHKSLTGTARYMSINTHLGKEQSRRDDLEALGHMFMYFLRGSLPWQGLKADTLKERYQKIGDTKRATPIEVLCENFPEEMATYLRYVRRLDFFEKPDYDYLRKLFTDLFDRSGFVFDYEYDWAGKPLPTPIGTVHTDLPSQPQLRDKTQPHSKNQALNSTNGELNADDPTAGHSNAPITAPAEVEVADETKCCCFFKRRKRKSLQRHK
Calcium/calmodulin-dependent protein kinase type II subunit beta (Homo sapiens), sequence (Q13554 whole entry): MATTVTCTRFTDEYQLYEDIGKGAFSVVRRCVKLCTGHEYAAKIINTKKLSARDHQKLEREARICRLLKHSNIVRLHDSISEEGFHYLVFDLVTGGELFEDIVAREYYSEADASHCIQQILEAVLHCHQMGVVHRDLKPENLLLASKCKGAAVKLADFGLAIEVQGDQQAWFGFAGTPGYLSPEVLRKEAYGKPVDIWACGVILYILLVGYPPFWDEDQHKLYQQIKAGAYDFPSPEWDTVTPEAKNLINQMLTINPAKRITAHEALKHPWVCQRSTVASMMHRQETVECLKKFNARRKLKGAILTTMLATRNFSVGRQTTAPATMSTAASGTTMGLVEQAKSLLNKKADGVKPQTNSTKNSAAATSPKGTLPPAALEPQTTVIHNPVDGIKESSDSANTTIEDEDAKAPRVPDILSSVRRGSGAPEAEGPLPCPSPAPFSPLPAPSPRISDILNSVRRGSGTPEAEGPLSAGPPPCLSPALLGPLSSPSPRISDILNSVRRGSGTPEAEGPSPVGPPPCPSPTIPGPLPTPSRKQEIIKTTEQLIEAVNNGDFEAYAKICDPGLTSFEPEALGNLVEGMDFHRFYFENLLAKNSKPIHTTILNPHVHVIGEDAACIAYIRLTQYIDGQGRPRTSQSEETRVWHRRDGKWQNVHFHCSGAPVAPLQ

**Q.** `Cc1cc([C@@H](C)Nc2ccccc2C(=O)O)c2nc(N3CCOCC3)cc(=O)n2c1` [AZD-6482] was tested. Which % of control [1] did it give?
**A.** The % of control was 88%.

**Q.** Which % of control [2] does the source give for `CN(C)C/C=C/C(=O)Nc1ccc(C(=O)N2CCCC(Nc3ncc(Cl)c(-c4c[nH]c5ccccc45)n3)C2)cc1` (centres undefined) here?
**A.** Its % of control is 62%.

**Q.** `CC[C@@H]1[C@H](F)C(=O)N[C@@H]1COc1nccc2cc(C(N)=O)c(OC)cc12` [ZIMLOVISERTIB] was tested. Which % of inhibition [3] did it give?
**A.** Its % of inhibition is 19.6%.

**Q.** For `Cc1cc(F)c(C(=O)Nc2cccc(-c3nncn3C(C)C)n2)cc1-n1cnc(C2CC2)c1`, which % of control [4] is on record?
**A.** The % of control was 57%.

**Q.** Which results are given for `Nc1cnc(N2CCc3cc(S(=O)(=O)Nc4c(F)cc(Cl)cc4F)cc(N4CCCC4=O)c32)nc1` [TP-020n]?
**A.** % of control [5]: 98%; % of inhibition [6]: 20.5%

**Q.** With `C=CC(=O)Nc1cc(-n2c(=O)ccc3cnc4ccc(-c5ccc(NS(C)(=O)=O)cc5)cc4c32)ccc1C` as the compound, how does the % of control ([7]; at 1 µM) read?
**A.** Its % of control is 89%.

**Q.** What about the % of control ([7]; at 10 µM) of the same compound?
**A.** Its % of control is 100%.

**Q.** For `CC(C)(O)[C@H](F)CN1Cc2cc(NC(=O)c3cnn4cccnc34)c(N3CCOCC3)cc2C1=O`, which % of inhibition [8] is on record?
**A.** Its % of inhibition is 90.8%.
